# Measurements published in PMC12396409, “Screening and hit evaluation of a microbial metabolite library against the pathogenic Plasmodium falciparum and Toxoplasma gondii parasites” (International Journal for Parasitology: Drugs and Drug …, 2025).
# Read-outs that look alike come from different tables or passages of the source.
# Legend:
# [1] = tested on: P. falciparum 3D7 parasites; assay: P. falciparum growth inhibition assay, 1-cycle (72 h treatment), SYBR DNA staining (library screen at 2 μg/mL and dose-response); format: cell-based, Plasmodium falciparum; conditions: for activity at 2 µg/mL: Plasmodium falciparum
# [2] = tested on: P. falciparum 3D7 parasites; assay: P. falciparum growth inhibition assay, 2-cycle (120 h treatment), delayed-death screen and dose-response; format: cell-based, Plasmodium falciparum; conditions: for activity at 2 µg/mL: Plasmodium falciparum
# [3] = tested on: T. gondii RH strain (RH-Tub-eYFP) tachyzoites; assay: microbe, parasite or virus in culture; format: cell-based, Toxoplasma gondii; conditions: 72 h; for percent parasite growth at 2 µg/mL: Toxoplasma gondii
# [4] = P. falciparum, 72 h, parasite screen 2 μg/mL, % growth, replicate 1
# [5] = P. falciparum, 72 h, parasite screen 2 μg/mL, % growth, replicate 2
# [6] = P. falciparum, 120 h, parasite screen 2 μg/mL, % growth, replicate 1
# [7] = P. falciparum, 120 h, parasite screen 2 μg/mL, % growth, replicate 2
# [8] = T. gondii, parasite screen 2 μg/mL, % growth, replicate 1
# [9] = T. gondii, parasite screen 2 μg/mL, % growth, replicate 2
# [10] = 3D7, 72 h, P. falciparum, 72 h, parasite screen 2 μg/mL, % growth, replicate 1, read-out: Pf_72h_%Growth_Rep1
# [11] = 3D7, 72 h, P. falciparum, 72 h, parasite screen 2 μg/mL, % growth, replicate 2, read-out: Pf_72h_%Growth_Rep2
# [12] = 3D7, 120 h, P. falciparum, 120 h, parasite screen 2 μg/mL, % growth, replicate 1, read-out: Pf_120h_%Growth_Rep1
# [13] = 3D7, 120 h, P. falciparum, 120 h, parasite screen 2 μg/mL, % growth, replicate 2, read-out: Pf_120h_%Growth_Rep2
# [14] = T. gondii, parasite screen 2 μg/mL, % growth, replicate 1, read-out: Tg_72h_%Growth_Rep1
# [15] = T. gondii, parasite screen 2 μg/mL, % growth, replicate 2, read-out: Tg_72h_%Growth_Rep2
compound,measurement,setting,value
CC1(C)CCCC2(C)c3cnncc3CCC12 (stereo not drawn) [Polygodial pyridazine],Pf_72h_%Growth_Rep1,[1]; [4],71.42%
same,Pf_72h_%Growth_Rep2,[1]; [5],85.26%
same,Pf_120h_%Growth_Rep1,[2]; [6],58.21%
same,Pf_120h_%Growth_Rep2,[2]; [7],140.85%
same,Tg_72h_%Growth_Rep1,[3]; [8],119.26%
same,Tg_72h_%Growth_Rep2,[3]; [9],96.17%
COC1=C(N)C(=O)c2nc(-c3nc(C(=O)O)c(C)c(-c4ccc(OC)c(OC)c4O)c3N)ccc2C1=O [Streptonigrin],activity at 2 µg/mL,[1]; [10],2.61%
same,activity at 2 µg/mL,[1]; [11],-8.29%
same,activity at 2 µg/mL,[2]; [12],43.2%
same,activity at 2 µg/mL,[2]; [13],6.18%
same,percent parasite growth at 2 µg/mL,[3]; [14],3.6%
same,percent parasite growth at 2 µg/mL,[3]; [15],2.59%
C=C(CC[C@]12O[C@H](C(=O)O)[C@@](O)(C(=O)O)[C@](C(=O)O)(O1)[C@H](OC(=O)/C=C/[C@@H](C)C[C@@H](C)CC)[C@H]2O)[C@@H](OC(C)=O)[C@H](C)Cc1ccccc1 [Zaragozic acid A],activity at 2 µg/mL,"[1]; 3D7, P. falciparum, 72 h, screen at 2 μg/mL, replicate 1, read-out: Pf_72h_%Growth_Rep1",92.7%
same,activity at 2 µg/mL,"[1]; 3D7, P. falciparum, 72 h, screen at 2 μg/mL, replicate 2, read-out: Pf_72h_%Growth_Rep2",117%
same,activity at 2 µg/mL,"[2]; 3D7, P. falciparum, 120 h, screen at 2 μg/mL, replicate 1, read-out: Pf_120h_%Growth_Rep1",104%
same,activity at 2 µg/mL,"[2]; 3D7, P. falciparum, 120 h, screen at 2 μg/mL, replicate 2, read-out: Pf_120h_%Growth_Rep2",107%
same,percent parasite growth at 2 µg/mL,"[3]; T. gondii, screen at 2 μg/mL, replicate 1, read-out: Tg_72h_%Growth_Rep1",122%
same,percent parasite growth at 2 µg/mL,"[3]; T. gondii, screen at 2 μg/mL, replicate 2, read-out: Tg_72h_%Growth_Rep2",82.3%
O=c1c2cccn2c(=O)c2cccn12 [Pyrocoll],Pf_72h_%Growth_Rep1,[1]; [4],84.60%
same,Pf_72h_%Growth_Rep2,[1]; [5],82.90%
same,Pf_120h_%Growth_Rep1,[2]; [6],85.16%
same,Pf_120h_%Growth_Rep2,[2]; [7],138.60%
same,Tg_72h_%Growth_Rep1,[3]; [8],94.37%
same,Tg_72h_%Growth_Rep2,[3]; [9],83.97%
COc1c2c(cc3c1c(=O)c1ccccc1n3C)OCO2 [Evoxanthine],Pf_72h_%Growth_Rep1,"[1]; library screen at 2 μg/mL, 72 h, % growth, replicate 1",81.42%
same,Pf_72h_%Growth_Rep2,"[1]; library screen at 2 μg/mL, 72 h, % growth, replicate 2",82.46%
same,Pf_120h_%Growth_Rep1,"[2]; library screen at 2 μg/mL, 120 h, % growth, replicate 1",87.52%
same,Pf_120h_%Growth_Rep2,"[2]; library screen at 2 μg/mL, 120 h, % growth, replicate 2",89.49%
same,Tg_72h_%Growth_Rep1,"[3]; library screen at 2 μg/mL, % growth, replicate 1",136.78%
same,Tg_72h_%Growth_Rep2,"[3]; library screen at 2 μg/mL, % growth, replicate 2",86.81%
Chaetomin,Pf_72h_%Growth_Rep1,"[1]; P. falciparum, 72 h, screen at 2 μg/mL, replicate 1",58.72%
same,Pf_72h_%Growth_Rep2,"[1]; P. falciparum, 72 h, screen at 2 μg/mL, replicate 2",55.68%
same,Pf_120h_%Growth_Rep1,"[2]; P. falciparum, 120 h, screen at 2 μg/mL, replicate 1",45.75%
same,Pf_120h_%Growth_Rep2,"[2]; P. falciparum, 120 h, screen at 2 μg/mL, replicate 2",45.66%
same,Tg_72h_%Growth_Rep1,"[3]; T. gondii, screen at 2 μg/mL, replicate 1",114.47%
same,Tg_72h_%Growth_Rep2,"[3]; T. gondii, screen at 2 μg/mL, replicate 2",90.87%
CO[C@H]1C[C@@H]2CC[C@@H](C)[C@@](O)(O2)C(=O)C(=O)N2CCCC[C@H]2C(=O)O[C@H]([C@H](C)C[C@@H]2CC[C@@H](O)[C@H](OC)C2)CC(=O)[C@H](C)/C=C(\C)[C@@H](O)[C@@H](OC)C(=O)[C@H](C)C[C@H](C)/C=C/C=C/C=C/1C [Rapamycin],activity at 2 µg/mL,[1]; [10],86.2%
same,activity at 2 µg/mL,[1]; [11],116%
same,activity at 2 µg/mL,[2]; [12],104%
same,activity at 2 µg/mL,[2]; [13],102%
same,percent parasite growth at 2 µg/mL,[3]; [14],132%
same,percent parasite growth at 2 µg/mL,[3]; [15],75.7%
CCCCCCCCCCCC[C@@H](C(=O)O)[C@H](C)C(=O)O [Roccellic acid],Pf_72h_%Growth_Rep1,[1]; [4],81.49%
same,Pf_72h_%Growth_Rep2,[1]; [5],118.80%
same,Pf_120h_%Growth_Rep1,[2]; [6],69.96%
same,Pf_120h_%Growth_Rep2,[2]; [7],129.33%
same,Tg_72h_%Growth_Rep1,[3]; [8],114.12%
same,Tg_72h_%Growth_Rep2,[3]; [9],89.45%
C[C@H]1C(=O)O[C@@H]2CCN3CC=C(COC(=O)[C@](C)(O)[C@]1(C)O)[C@H]23 [BIA-M1801],Pf_72h_%Growth_Rep1,"[1]; P. falciparum 3D7, 72 h, parasite screen at 2 μg/mL, % growth, replicate 1",85.52%
same,Pf_72h_%Growth_Rep2,"[1]; P. falciparum 3D7, 72 h, parasite screen at 2 μg/mL, % growth, replicate 2",78.69%
same,Pf_120h_%Growth_Rep1,"[2]; P. falciparum 3D7, 120 h, parasite screen at 2 μg/mL, % growth, replicate 1",81.80%
same,Pf_120h_%Growth_Rep2,"[2]; P. falciparum 3D7, 120 h, parasite screen at 2 μg/mL, % growth, replicate 2",104.58%
same,Tg_72h_%Growth_Rep1,"[3]; T. gondii, parasite screen at 2 μg/mL, % growth, replicate 1",108.79%
same,Tg_72h_%Growth_Rep2,"[3]; T. gondii, parasite screen at 2 μg/mL, % growth, replicate 2",79.49%
